Measured values as given in patent US20200323802A1, “SUPPORTING IMMUNOMODULATORY AGENT” (Flexopharm Brain GMBH & Go. KG, priority 2015, published 2020).
Entries after “also recorded” stand apart in the source; their conditions may differ.

Columns and labels:
Treg cells = Treg cells in MS patients before and after 14 days of treatment with sodium propionate plus MS drug; format: in vivo, human; conditions: pooled comparison group, patient-specific dose of the MS drug together with sodium propionate 2×0.5 g daily, before vs after 14 days, FIG. 6
Excerpt: The disproportionate increase in the amount of Treg cells signifies a corresponding reduction in the autoimmune response.

[1] = test system: experimental autoimmune encephalomyelitis (EAE); experiment: EAE mouse model: relative axonal density, demyelination of the white matter, CD3+ cells; format: in vivo; conditions: propionic acid (DI or OD), FIG. 3
Description: FIG. 3: is a graph showing the effect of propionic acid diet initiated at the time of disease induction (DI) or at the time of onset of symptoms (OD) compared to a diet control group on relative axonal density, demyelination in the white matter, and CD3+ cells in the mouse EAE model.
(§1) Mice kept under standardized conditions were fed on a normal diet enriched with long-chain fatty acids (30.9% lauric acid) and with 200 μl of propionate daily administered orally. The propionate was given either at the time of disease induction (DI) or at the onset of the disease (OD).
(§2) For the induction of EAE the mice were anesthetized and administered two subcutaneous injections of a 50 μl emulsion applied to the left and right tail basis and comprising a total of 200 μg MOG35-55 (myelin oligodendrocyte glycoprotein) and 200 μg Freund's adjuvant (CFA) with 4 mg/ml of M. tuberculosis. Pertussis toxin ([…]) was given intraperitoneally on day 0 and day 2 after the induction. The clinical assessment took place on a daily basis using a 5-point scale (SEM). The assessment was as follows:
The influence of the propionic acid on the relative axonal density, the demyelination of the white matter, and the number of CD3+-cells is shown in FIG. 3.

CD4+CD25+ Foxp3+ Treg = experiment: Levels of CD4+CD25+ Foxp3 regulatory T cells in mouse EAE model; format: in vivo
Description: FIG. 4: is a graph showing the effect of propionic acid diet initiated at the time of disease induction (DI) compared to a control group on levels of CD4+CD25+ Foxp3 cells in mouse EAE model
FIG. 5 is a graph showing the effect of lauric acid diet (250 μM and 500 μM) initiated at the time of disease induction (DI) compared to a control group on levels of CD4+CD25+ Foxp3 cells in mouse EAE model,
as §1
as §2, with “(SEM).” for “(SEM). The assessment was as follows:”

[2] = test system: experimental autoimmune encephalomyelitis (EAE); experiment: EAE mouse model, daily clinical assessment on 5-point scale (SEM); format: in vivo
Description: as §1, §2
0=normal 1=Tail paralysis impairing raising 2=Gait ataxia 3=Paraparesis of hind legs
Mice showing SEM 4 or 5 were excluded.

Foxp3 = experiment: Gene expression profiling of signature cytokines in EAE mice; format: in vivo, mouse; conditions: propionic acid-fed mice with EAE
Excerpt: (§3) In mice treated with propionic acid, the number of regulatory T cells increases with the changes that occur in the microbiota (CD4+CD25+ Foxp3+ Treg).

TGFβ1 = experiment: as above; format: in vivo, mouse; conditions: propionic acid-fed mice with EAE
Excerpt: as §3

IL-10 = experiment: as above; format: in vivo, mouse; conditions: propionic acid-fed mice with EAE
Excerpt: as §3

intestinal microbiome = experiment: Influence on composition of the intestinal microbiome; format: in vivo; conditions: present in mice
Excerpt: The inventive acids, in particular propionic acid and butyric acid have an influence on the intestinal physiology and the microbiome present there. In this way, they have an impact on the composition of the microbiome.

TH1 and TH17 cells = experiment: Th1/Th17 cells in small bowel and central nervous system in EAE mice; format: in vivo; conditions: mouse EAE, lauric acid enriched diet
Excerpt: Moreover, the aliphatic chain length of the carboxylic acids also affects the […] autoimmunity as well as the regulatory response of Treg in an in vivo mouse model. […] In this context, MS and psoriasis are to be regarded as largely similar.

## CCCCCCCCc1ccc(CCC(N)(CO)CO)cc1 [fingolimod]
Treg cells
  increase in number of Treg cells by a factor: 1.1

## CCC(=O)O [propionic acid]
[1]
  relative axonal density, demyelination of the white matter and number of CD3+ cells versus control group: significant improvement
CD4+CD25+ Foxp3+ Treg; propionic acid administration (DI), FIG. 4
  CD4+CD25+ Foxp3 cells versus control group: increases; also recorded: significant increase
[2]; MS mouse model (EAE), propionic acid given prophylactically
  course of induced disease versus control group: significant improvement
[2]; mouse EAE, propionic acid given orally on the day of onset of disease (OD), FIG. 2
  disease progression (SEM) versus control group: significantly less favorable disease progression than the control group
Foxp3
  Foxp3 gene expression: increased values; also recorded: significant increase
TGFβ1
  TGFβ1 gene expression: increased values; also recorded: significant increase
IL-10
  IL-10 gene expression: increased values; also recorded: significant increase

## CCCCCCCCCCCC(=O)O [lauric acid]
Intestinal microbiome
  number of Provotellaceae and some families of Phylum Bacteroidetes: reduce significantly
TH1 and TH17 cells
  TH1 and TH17 cells in the small bowel: significant reduction
  Th1/Th17 in the central nervous system: accumulation
CD4+CD25+ Foxp3+ Treg; lauric acid enriched diet (250 μM and 500 μM), concentration dependent, FIG. 5
  CD4+CD25+ Foxp3 cells versus control value: reduction

## glatiramer acetate
Treg cells
  increase in number of Treg cells by a factor: 1.1

## C/C(O)=C(\C#N)C(=O)Nc1ccc(C(F)(F)F)cc1 [teriflunomide]
Treg cells
  increase in number of Treg cells by a factor: 1.1
